The test system of this assay is ABCA1 mRNA. The experiment in a line: cells. The format is cell-based. The settings on record: Primary macrophage, human primary macrophages, 18 h + 6 h treatment, vs DMSO control, read-out: Fold Induction of ABCA1 mRNA (Mean ± SEM). The protocol: Induction of ABCA1 mRNA Levels
Human Primary Macrophages were used to test the ability of LXR ligands to induce the expression of ABCA1 mRNA. The collection and purification of monocytes and their subsequent differentiation into macrophages by culturing in Teflon jars for 7-9 days was performed according to Wright and Silverstein J. Exp. Med. V156, October 1982 pp 1149-1164. Cells were harvested from the Teflon jars and seeded into appropriate vessels in RPMI1640 plus 12% human serum and antibiotics. Cells were allowed to recover overnight before treatment. Treatment was for 18 hours with the described compounds, followed by a re-application of fresh compounds for an additional 6 hours in DMEM minus Phenol Red with 10% charcoal stripped FCS. The cells were harvested and total RNA prepared using the phenol/guanidine isothiocyanate method as supplied and described by Molecular Research Center, Inc. (TRI REAGENT® Cat. No. TR 118). ABCA1 mRNA levels in the total RNA were measured using the TaqMan® mRNA quantitation system, following protocols published by the manufacturer (Perkin-Elmer). The oligonucleotide PCR primers used to detect ABCA1 were:
The oligonucleotide probe used was:
6FAM-[…]-TAMRA ABCA1 mRNA levels in each sample were normalized to the mRNA levels for the 23 kDa highly basic protein. The oligonucleotide PCR primers used to detect the 23 kDa highly basic protein were: […]

Structures are written as SMILES.

The text below walks through data of patent US6908934B2, “Therapeutic compounds for treating dyslipidemic conditions” (Merck & Co., Inc., priority 2001, dated 2005).

With `CC(C)CC[C@@H](O)[C@@H](C)[C@H]1CC[C@H]2[C@@H]3CC=C4C[C@@H](O)CC[C@]4(C)[C@H]3CC[C@]12C` [22-(R)-hydroxycholesterol], the fold induction at 10 µM was determined as 8 ± 1.37.
